Test results published in the supplement of paper PMC10733146.

How the values were obtained:
Experiment in all cases: viability relative to DMSO control (fraction); higher = less drug effect (more viable cells)
Details in all cases: 48 h
[1] = tested on: primary DLBCL patient cells (S082)
In short: (§1)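 In 384-well plates with compounds pre-plated at five concentrations (one well per concentration), primary mononuclear tumour cells were plated at 4 × 10^4 cells per well. The cells came from blood or bone marrow by Ficoll isolation or from processed lymph node, and were used fresh or cryopreserved. Culture ran for 48 h at 37 °C and 5% CO2 in RPMI-1640 containing penicillin/streptomycin, L-glutamine and human serum. Viability was read as CellTiter-Glo luminescence, normalised to the median of 16 inner DMSO wells.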

[2] = tested on: primary AML patient cells (S017)
In short: as §1

[3] = tested on: primary AML patient cells (S091)
In short: as §1

[4] = tested on: primary AML patient cells (S060)
In short: as §1

[5] = tested on: primary T-PLL patient cells (S008)
In short: as §1

[6] = tested on: primary AML patient cells (S009)
In short: as §1

[7] = tested on: primary AML patient cells (S072)
In short: as §1

[8] = tested on: primary AML patient cells (S002)
In short: as §1

[9] = tested on: primary B-PLL patient cells (S016)
In short: as §1

[10] = tested on: primary AML patient cells (S089)
In short: as §1

[11] = tested on: primary MCL patient cells (S068)
In short: as §1

[12] = tested on: primary MCL patient cells (S053)
In short: as §1

[13] = tested on: primary AML patient cells (S081)
In short: as §1

[14] = tested on: primary AML patient cells (S071)
In short: as §1

[15] = tested on: primary AML patient cells (S025)
In short: as §1

[16] = tested on: primary AML patient cells (S021)
In short: as §1

[17] = tested on: primary AML patient cells (S037)
In short: as §1

[18] = tested on: primary CLL patient cells (S043)
In short: as §1

[19] = tested on: primary BL patient cells (S005)
In short: as §1

For Cc1nc(Nc2ncc(C(=O)Nc3c(C)cccc3Cl)s2)cc(N2CCN(CCO)CC2)n1 [Dasatinib], the viability ([1]; 0.0016 µM) was 0.966, the viability ([1]; 0.008 µM) was 0.847 and the viability ([1]; 0.04 µM) was 0.643. The viability ([1]; 0.2 µM) was 0.298, the viability ([1]; 1 µM) was 0.0983 and the viability ([2]; 0.0016 µM) was 0.997. The viability ([2]; 0.008 µM) was 0.859, the viability ([2]; 0.04 µM) was 0.654 and the viability ([2]; 0.2 µM) was 0.689. It also gave a viability ([2]; 1 µM) of 0.711, a viability ([3]; 0.0016 µM) of 0.951 and a viability ([3]; 0.008 µM) of 0.924. For the same compound, the viability ([3]; 0.04 µM) was 0.787, the viability ([3]; 0.2 µM) was 0.784 and the viability ([3]; 1 µM) was 1.29. It also gave a viability ([4]; 0.0016 µM) of 1.02, a viability ([4]; 0.008 µM) of 1.03 and a viability ([4]; 0.04 µM) of 0.901. The viability ([4]; 0.2 µM) was 0.891, the viability ([4]; 1 µM) was 0.638 and the viability ([5]; 0.0016 µM) was 1. It also gave a viability ([5]; 0.008 µM) of 0.974, a viability ([5]; 0.04 µM) of 0.968 and a viability ([5]; 0.2 µM) of 0.973. The viability ([5]; 1 µM) was 0.996, the viability ([6]; 0.0016 µM) was 0.987 and the viability ([6]; 0.008 µM) was 0.965. It also gave a viability ([6]; 0.04 µM) of 0.993, a viability ([6]; 0.2 µM) of 0.972 and a viability ([6]; 1 µM) of 1. The viability ([7]; 0.0016 µM) was 0.945, the viability ([7]; 0.008 µM) was 0.851 and the viability ([7]; 0.04 µM) was 0.712. The viability ([7]; 0.2 µM) was 0.623, the viability ([7]; 1 µM) was 0.704 and the viability ([8]; 0.0016 µM) was 0.979. The viability ([8]; 0.008 µM) was 1.04, the viability ([8]; 0.04 µM) was 0.799 and the viability ([8]; 0.2 µM) was 0.764. For the same compound, the viability ([8]; 1 µM) was 1.04, the viability ([9]; 0.0016 µM) was 0.693 and the viability ([9]; 0.008 µM) was 0.45. It also gave a viability ([9]; 0.04 µM) of 0.397, a viability ([9]; 0.2 µM) of 0.368 and a viability ([9]; 1 µM) of 0.445. The viability ([10]; 0.0016 µM) was 0.976, the viability ([10]; 0.008 µM) was 1.03 and the viability ([10]; 0.04 µM) was 0.576. The viability ([10]; 0.2 µM) was 0.504, the viability ([10]; 1 µM) was 0.537 and the viability ([11]; 0.0016 µM) was 0.912. For the same compound, the viability ([11]; 0.008 µM) was 0.671, the viability ([11]; 0.04 µM) was 0.4 and the viability ([11]; 0.2 µM) was 0.341. It also gave a viability ([11]; 1 µM) of 0.357, a viability ([12]; 0.0016 µM) of 1.14 and a viability ([12]; 0.008 µM) of 0.882. It also gave a viability ([12]; 0.04 µM) of 0.494, a viability ([12]; 0.2 µM) of 0.342 and a viability ([12]; 1 µM) of 0.347. The viability ([13]; 0.0016 µM) was 1.14, the viability ([13]; 0.008 µM) was 1.01 and the viability ([13]; 0.04 µM) was 0.693. It also gave a viability ([13]; 0.2 µM) of 0.54, a viability ([13]; 1 µM) of 0.764 and a viability ([14]; 0.0016 µM) of 1.04. It also gave a viability ([14]; 0.008 µM) of 1.05, a viability ([14]; 0.04 µM) of 1 and a viability ([14]; 0.2 µM) of 0.948. For the same compound, the viability ([14]; 1 µM) was 0.951, the viability ([15]; 0.0016 µM) was 0.961 and the viability ([15]; 0.008 µM) was 1.02. The viability ([15]; 0.04 µM) was 0.978, the viability ([15]; 0.2 µM) was 0.965 and the viability ([15]; 1 µM) was 1.14. It also gave a viability ([16]; 0.0016 µM) of 0.964, a viability ([16]; 0.008 µM) of 0.799 and a viability ([16]; 0.04 µM) of 0.73. The viability ([16]; 0.2 µM) was 0.615, the viability ([16]; 1 µM) was 0.638 and the viability ([17]; 0.0016 µM) was 1.04. It also gave a viability ([17]; 0.008 µM) of 1.01, a viability ([17]; 0.04 µM) of 1 and a viability ([17]; 0.2 µM) of 0.982. For the same compound, the viability ([17]; 1 µM) was 1.03, the viability ([18]; 0.0016 µM) was 1.31 and the viability ([18]; 0.008 µM) was 1.2. The viability ([18]; 0.04 µM) was 0.67, the viability ([18]; 0.2 µM) was 0.595 and the viability ([18]; 1 µM) was 0.547. For the same compound, the viability ([19]; 0.0016 µM) was 0.917, the viability ([19]; 0.008 µM) was 0.807 and the viability ([19]; 0.04 µM) was 0.788. It also gave a viability ([19]; 0.2 µM) of 0.7 and a viability ([19]; 1 µM) of 0.697.
